Measurements taken from US20220274983A1, “JAK KINASE INHIBITOR AND USE THEREOF” (JIANGSU CAREPHAR PHARMACEUTICAL CO., LTD., priority 2019, published 2022).

How the values were obtained:
THP1 cells = assay: Proliferation inhibition based on THP1 cells (IL-4 stimulation, CTG); type: cell-based; conditions: Homo sapiens, THP-1, read-out: IC50 (uM), proliferation inhibitory activity on THP1 cells
Description: 1. Cell plating: cultured cells were collected and counted for viable cells with Vi-Cell XR cell counter. The cell suspension was adjusted to an appropriate concentration with the medium and then added to a 96-well cell culture plate. 80 μL of the cell suspension was added to each well of the 96-well cell culture plate. The cell plating density depended on the growth rate of the cells. The cells were cultured in corresponding incubators.
(§1) 2. Drug treatment and IL-4 stimulation: firstly, a series of test compound concentration (work solution-1) was prepared using DMSO with 3× gradient dilution, and then it was subjected to fold dilution with RPMI1640+10% FBS to obtain a work solution-2; Cisplatin's work solution-2 was prepared with RPMI1640+10% FBS, and then 1-10 μL solution taken from the work solution-2 was added to the prepared cell wells containing medium. The cells were cultured in the corresponding incubators. After incubation, 1-10 μL of IL-4 medium was added to each well and continued to culture. An appropriate CTG solution was added to each well.
Cell Survial Rate Calculation
(§2) T is the luminescence reading of a drug treatment group, and C is the average luminescence reading of a solvent control group.

JAK2 = JAK2 (Homo sapiens, UniProt O60674); assay: JAK kinase inhibitory activity, HTRF biochemical assay
Description: (§3) The compounds of the above embodiments were applied to the detection and screening of JAK kinase inhibitory activity.
(§4) A corresponding volume of DMSO was added to each well of a first 96-well plate. 20-30 μL of 100-200 μM stock solution of different test compounds were added to each well. The mixture was shaken and mixed for 3 min. All of the compounds were subjected to 3× serial dilution. 60-80 μL Kinase buffer was added to each well of a second 96-well plate, and 1-2 μL of the solution taken from each well of the first 96-well plate was added to the corresponding well of the second 96-well plate. The mixture was shaken and mixed for 3 min. 5 μL of compound dilution taken from each well of the second compound dilution plate was transferred to the corresponding well of a 384-well test plate. 1-2 μL TK Substrate-biotin was added to each well of the test plate. 1-2 μL of enzyme mixture was added to each well. At the same time, a blank well without enzyme was set. 1-2 μL of ATP solution was added to each well, the plate was sealed and reacted at room temperature. The reaction time was as follows: JAK1: 2 h, JAK2: 30 min, JAK3: 30 min, and TYK2: 50 min. 3-5 μL of Streptavidin-XL665 and 3-5 μL of TK Antibody-cryptate were added to each well, the plate was sealed and allowed to stand at room temperature for 30 min to complete the reaction.
(§5) The percentage of inhibition was calculated based on the following formula:
(§6) Inhibition %=[(Ratiomax−Ratiocompound)/(Ratiomax−Ratiomin)]×100%
(§7) Ratiocompound is the HTRF ratio at a given compound concentration, Ratiomin is the HTRF ratio added to the blank well, and Ratiomax is the HTRF ratio without adding the compound. GraphPad Prism 5.0 software was used to plot a sigmoid dose-inhibition rate curve with a non-linear regression model and calculate the IC50 value.

JAK1 = JAK1 (Homo sapiens, UniProt P23458); assay: as above
Description: as §3, §4, §5, §6, §7

JAK3 = target: T1, JAK3 (Homo sapiens, UniProt P52333); assay: as above
T1 sequence (P52333 1-1124): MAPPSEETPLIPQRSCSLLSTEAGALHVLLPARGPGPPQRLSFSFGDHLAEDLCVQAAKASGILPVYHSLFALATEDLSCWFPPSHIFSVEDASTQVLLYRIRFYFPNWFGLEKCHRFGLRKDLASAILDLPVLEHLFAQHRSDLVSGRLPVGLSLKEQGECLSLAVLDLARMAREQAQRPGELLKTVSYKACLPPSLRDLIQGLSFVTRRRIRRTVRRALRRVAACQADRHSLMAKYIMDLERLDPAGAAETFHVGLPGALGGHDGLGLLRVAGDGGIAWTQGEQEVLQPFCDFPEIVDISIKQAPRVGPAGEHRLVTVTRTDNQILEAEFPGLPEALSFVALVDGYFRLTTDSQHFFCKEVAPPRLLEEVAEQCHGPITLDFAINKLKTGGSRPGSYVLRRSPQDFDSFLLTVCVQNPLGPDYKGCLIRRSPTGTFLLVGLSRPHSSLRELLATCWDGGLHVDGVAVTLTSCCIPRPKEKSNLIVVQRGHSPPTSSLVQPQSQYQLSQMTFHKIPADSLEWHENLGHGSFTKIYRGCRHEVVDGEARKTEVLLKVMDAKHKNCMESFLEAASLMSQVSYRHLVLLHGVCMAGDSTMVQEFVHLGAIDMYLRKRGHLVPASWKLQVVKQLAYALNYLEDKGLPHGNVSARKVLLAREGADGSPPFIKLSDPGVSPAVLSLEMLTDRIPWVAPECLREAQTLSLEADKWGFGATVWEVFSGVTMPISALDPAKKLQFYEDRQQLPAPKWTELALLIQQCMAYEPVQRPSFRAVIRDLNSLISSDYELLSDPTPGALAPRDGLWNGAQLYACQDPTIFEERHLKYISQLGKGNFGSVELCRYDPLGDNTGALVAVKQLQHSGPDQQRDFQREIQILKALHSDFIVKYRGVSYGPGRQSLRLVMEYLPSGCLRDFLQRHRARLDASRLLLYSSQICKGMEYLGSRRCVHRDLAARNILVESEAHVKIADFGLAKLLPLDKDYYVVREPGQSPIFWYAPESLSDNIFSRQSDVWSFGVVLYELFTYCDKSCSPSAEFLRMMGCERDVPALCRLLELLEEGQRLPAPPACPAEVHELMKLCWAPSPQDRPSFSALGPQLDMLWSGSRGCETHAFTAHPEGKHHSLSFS
Description: as §3, §4, §5, §6, §7

TYK2 = TYK2 (Homo sapiens, UniProt P29597); assay: as above
Description: as §3, §4, §5, §6, §7

BaF3 cells = assay: Proliferation inhibition based on BaF3 cells (IL-3 medium, CTG); type: cell-based; conditions: Mus musculus, medium containing IL-3, read-out: IC50 (uM), proliferation inhibitory activity on BaF3 cells
Description: 1. Cell plating: cultured cells were collected with RPMI1640+10% FBS (containing IL-3) medium and counted for viable cells with Vi-Cell XR cell counter. The cell suspension was adjusted to an appropriate concentration with RPMI1640+10% FBS (containing IL-3) medium and then added to a 96-well cell culture plate. A certain amount of cell suspension was added to each well of the 96-well cell culture plate. The cells were cultured in corresponding incubators.
as §1, with “treatment:” for “treatment and IL-4 stimulation: firstly,”, “FBS (containing IL-3)” for “FBS”, “FBS (containing IL-3),” for “FBS,”, “incubators.” for “incubators. After incubation, 1-10 μL of IL-4 medium was added to each well and continued to culture.”
Cell Survival Rate Calculation
as §2

Sequence of JAK2 (O60674 whole entry, species assumed): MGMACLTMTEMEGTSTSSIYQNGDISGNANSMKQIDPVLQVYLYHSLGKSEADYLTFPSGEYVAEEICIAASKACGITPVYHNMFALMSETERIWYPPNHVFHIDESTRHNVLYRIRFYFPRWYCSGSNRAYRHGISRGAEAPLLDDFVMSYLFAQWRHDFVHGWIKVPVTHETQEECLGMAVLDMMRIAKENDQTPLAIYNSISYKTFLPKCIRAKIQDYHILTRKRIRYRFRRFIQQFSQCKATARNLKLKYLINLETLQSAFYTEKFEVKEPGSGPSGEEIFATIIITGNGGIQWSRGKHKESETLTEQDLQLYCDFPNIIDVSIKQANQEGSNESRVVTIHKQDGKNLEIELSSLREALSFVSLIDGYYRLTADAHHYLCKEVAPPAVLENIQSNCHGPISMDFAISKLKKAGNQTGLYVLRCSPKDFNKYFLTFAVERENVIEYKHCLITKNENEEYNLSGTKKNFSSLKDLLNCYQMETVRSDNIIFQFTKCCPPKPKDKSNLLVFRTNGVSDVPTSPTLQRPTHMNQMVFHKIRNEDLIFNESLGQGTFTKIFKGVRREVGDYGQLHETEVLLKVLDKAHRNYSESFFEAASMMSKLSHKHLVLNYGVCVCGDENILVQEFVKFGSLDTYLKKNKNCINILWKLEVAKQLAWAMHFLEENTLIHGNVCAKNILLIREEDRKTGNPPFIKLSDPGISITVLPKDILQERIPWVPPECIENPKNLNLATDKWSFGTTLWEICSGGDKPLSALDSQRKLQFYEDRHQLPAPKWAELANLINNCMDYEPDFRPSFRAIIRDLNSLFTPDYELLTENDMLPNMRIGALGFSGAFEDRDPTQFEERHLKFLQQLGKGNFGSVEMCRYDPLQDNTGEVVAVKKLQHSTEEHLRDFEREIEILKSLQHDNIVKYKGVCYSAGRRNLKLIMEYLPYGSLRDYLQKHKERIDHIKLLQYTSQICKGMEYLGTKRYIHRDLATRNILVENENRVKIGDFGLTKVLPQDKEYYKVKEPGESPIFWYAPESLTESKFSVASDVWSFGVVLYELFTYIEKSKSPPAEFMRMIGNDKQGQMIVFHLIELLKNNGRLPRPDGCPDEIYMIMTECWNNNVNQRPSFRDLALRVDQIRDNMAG
Sequence of TYK2 (P29597 whole entry, species assumed): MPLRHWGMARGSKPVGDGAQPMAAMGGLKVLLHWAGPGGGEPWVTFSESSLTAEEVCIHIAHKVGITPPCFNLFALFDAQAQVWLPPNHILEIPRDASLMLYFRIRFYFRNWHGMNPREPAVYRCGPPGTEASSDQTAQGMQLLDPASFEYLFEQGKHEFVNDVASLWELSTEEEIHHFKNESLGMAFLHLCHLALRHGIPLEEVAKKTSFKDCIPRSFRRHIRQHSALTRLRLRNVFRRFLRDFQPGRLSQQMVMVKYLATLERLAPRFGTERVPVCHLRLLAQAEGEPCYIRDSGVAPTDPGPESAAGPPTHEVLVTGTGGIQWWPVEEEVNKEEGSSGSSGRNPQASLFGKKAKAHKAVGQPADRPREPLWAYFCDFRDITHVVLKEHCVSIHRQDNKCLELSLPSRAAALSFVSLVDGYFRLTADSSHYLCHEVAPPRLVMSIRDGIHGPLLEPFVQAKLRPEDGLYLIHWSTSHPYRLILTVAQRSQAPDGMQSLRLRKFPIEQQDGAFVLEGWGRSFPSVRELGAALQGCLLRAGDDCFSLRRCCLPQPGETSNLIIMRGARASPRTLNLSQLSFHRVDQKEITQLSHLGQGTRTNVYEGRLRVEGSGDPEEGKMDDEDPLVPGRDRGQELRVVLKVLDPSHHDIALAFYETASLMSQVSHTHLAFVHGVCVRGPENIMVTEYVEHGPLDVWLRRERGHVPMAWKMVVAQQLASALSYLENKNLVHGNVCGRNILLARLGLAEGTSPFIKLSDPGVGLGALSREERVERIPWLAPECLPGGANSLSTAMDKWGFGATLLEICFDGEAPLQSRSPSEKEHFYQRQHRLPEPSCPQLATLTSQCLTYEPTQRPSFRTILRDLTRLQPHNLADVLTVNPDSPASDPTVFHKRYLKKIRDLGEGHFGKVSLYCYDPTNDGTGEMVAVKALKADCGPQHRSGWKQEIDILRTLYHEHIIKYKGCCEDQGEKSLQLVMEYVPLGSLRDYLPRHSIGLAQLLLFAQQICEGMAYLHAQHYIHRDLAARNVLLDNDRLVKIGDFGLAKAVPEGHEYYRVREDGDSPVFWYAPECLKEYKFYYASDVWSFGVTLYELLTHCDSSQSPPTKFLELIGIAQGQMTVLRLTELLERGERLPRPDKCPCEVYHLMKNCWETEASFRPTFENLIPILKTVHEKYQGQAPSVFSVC
Sequence of JAK1 (P23458 whole entry, species assumed): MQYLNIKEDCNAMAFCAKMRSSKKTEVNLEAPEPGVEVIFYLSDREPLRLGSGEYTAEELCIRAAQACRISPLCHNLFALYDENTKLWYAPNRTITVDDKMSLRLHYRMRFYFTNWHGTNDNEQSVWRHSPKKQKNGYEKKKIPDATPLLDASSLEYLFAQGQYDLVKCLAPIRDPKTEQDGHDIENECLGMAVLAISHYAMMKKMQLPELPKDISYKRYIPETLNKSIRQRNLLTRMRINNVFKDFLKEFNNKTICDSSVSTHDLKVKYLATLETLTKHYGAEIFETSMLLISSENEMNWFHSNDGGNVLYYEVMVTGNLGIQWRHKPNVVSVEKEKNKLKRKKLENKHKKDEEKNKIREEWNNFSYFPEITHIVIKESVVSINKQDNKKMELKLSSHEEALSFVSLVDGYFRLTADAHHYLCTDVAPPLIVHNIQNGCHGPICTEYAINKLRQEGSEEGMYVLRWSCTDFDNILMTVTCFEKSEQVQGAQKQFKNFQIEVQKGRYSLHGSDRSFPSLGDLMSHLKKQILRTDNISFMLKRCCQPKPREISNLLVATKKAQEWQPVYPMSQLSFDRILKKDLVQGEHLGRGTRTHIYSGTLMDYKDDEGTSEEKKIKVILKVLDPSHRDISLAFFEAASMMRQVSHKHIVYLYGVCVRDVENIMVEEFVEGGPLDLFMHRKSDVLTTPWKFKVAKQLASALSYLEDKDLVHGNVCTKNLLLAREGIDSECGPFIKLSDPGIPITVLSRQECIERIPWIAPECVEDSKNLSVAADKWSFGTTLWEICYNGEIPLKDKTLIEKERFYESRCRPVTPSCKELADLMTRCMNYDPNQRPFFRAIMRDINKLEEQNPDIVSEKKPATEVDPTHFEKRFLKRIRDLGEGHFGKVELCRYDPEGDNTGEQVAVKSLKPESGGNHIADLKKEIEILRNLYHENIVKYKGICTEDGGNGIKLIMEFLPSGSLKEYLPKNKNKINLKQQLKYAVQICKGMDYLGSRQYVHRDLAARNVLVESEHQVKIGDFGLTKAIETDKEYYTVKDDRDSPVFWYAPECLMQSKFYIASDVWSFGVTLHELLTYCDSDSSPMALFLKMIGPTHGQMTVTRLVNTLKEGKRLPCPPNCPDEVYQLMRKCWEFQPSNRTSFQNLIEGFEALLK

Compound | IC50 (THP1 cells) | IC50 (JAK2) | IC50 (JAK1) | IC50 (JAK3) | IC50 (TYK2) | IC50 (BaF3 cells)
O=C(Nc1cn2c(-c3ccc(CN4CCS(=O)(=O)CC4)s3)cccc2n1)[C@H]1C[C@@H]1F (relative stereo) [EXP-3, trans-N-[5-[5-[(1,1-dioxo-1,4-thiazin-4-yl)methyl]-2-thiophene]imidazo[1,2-a]pyridin-2-yl]-2-fluoro-cyclopropylcarboxamide] | < 5 µM | 30 to 50 nM | 10 to 30 nM | > 500 nM | > 500 nM | < 5 µM
O=C(Nc1nc2cccc(-c3ccc(CN4CCS(=O)(=O)CC4)s3)n2n1)C1CC1 [EXP-1] | < 5 µM | 30 to 50 nM | 30 to 50 nM | 50 to 500 nM | > 500 nM | < 5 µM
